Data on 35 compounds can be found in patent US20100130737A1, “Regulating Agent of GPR34 Receptor Function” (TAKEDA PHARMACEUTICAL COMPANY LIMITED, priority 2005, published 2010).

Structures are written as SMILES. Structures can show the parent of a compound that is named as a salt.

The melting point is the temperature of the solid-liquid transition.

Turning to `O=C(N[C@@H](Cc1ccc(OCc2ccc(Cl)cc2)cc1)C(=O)O)c1cc2ccc(-c3ccc(Cl)cc3)cc2o1` [Example C159, O-(4-Chlorobenzyl)-N-{[6-(4-chlorophenyl)-1-benzofuran-2-yl]carbonyl}tyrosine], the melting point was found to be 195 °C.
The result for `O=C(O)CN(Cc1ccc(OCc2ccsc2)cc1)C(=O)c1cn2ccc(-c3ccc(Cl)cc3)cc2n1` [Example E53] reads 187 °C; that for `O=C(Cc1ccc(OCc2ccc(F)cc2)cc1)Nc1c(C(=O)O)oc2cc(-c3ccc(Cl)cc3)ccc12` [Example A24, 6-(4-Chlorophenyl)-3-[({4-[(4-fluorobenzyl)oxy]phenyl}acetyl)amino]-1-benzofuran-2-carboxylic acid], 205 to 206 °C.
The result for `O=C(N[C@@H](Cc1ccc(OCc2cccc(F)c2)cc1)C(=O)O)c1cc2cc(-c3ccc(Cl)cc3)ccc2s1` [Example C126, N-{[5-(4-Chlorophenyl)-1-benzothiophene-2-yl]carbonyl}-O-(3-fluorobenzyl) tyrosine] reads 184 to 185 °C; that for `O=C(Cc1ccc(Oc2ccccc2)cc1)NC1(C(=O)O)Cc2ccc(-c3ccc(Cl)cc3)cc2C1` (centres unmarked) [Example B183, 5-(4-Chlorophenyl)-2-{[(4-phenoxyphenyl)acetyl]amino)indan-2-carboxylic acid], 227 to 228 °C; that for `O=C(N[C@@H](Cc1ccc(OCc2ccc(Cl)cc2)cc1)C(=O)O)c1cc2cc(-c3ccc(Cl)cc3)ccc2s1` [Example C135, O-(4-Chlorobenzyl)-N-{[5-(4-chlorophenyl)-1-benzothiophene-2-yl]carbonyl}tyrosine], 196 to 197 °C.
Compound `Nc1ccccc1COc1ccc(CC(=O)NC2(C(=O)O)Cc3ccc(-c4ccc(Cl)cc4)cc3C2)cc1` (centres unmarked) [Example B194, 2-[({4-[(2-Aminobenzyl)oxy]phenyl}acetyl)amino]-5-(4-chlorophenyl)indan-2-carboxylic acid] displayed a melting point of 149 to 150 °C.
As for `O=C(Cc1ccc(OC2Cc3ccccc3C2)cc1)NC1(C(=O)O)Cc2ccc(-c3ccc(Cl)cc3)cc2C1` (centres unmarked) [Example B155, 5-(4-Chlorophenyl)-2-({[4-(2,3-dihydro-1H-inden-2-yloxy)phenyl]acetyl}amino)indan-2-carboxylic acid], the figure is 233 to 234 °C.
The result for `O=C(N[C@@H](Cc1ccc(OCc2ccc(C(F)(F)F)cc2)cc1)C(=O)O)c1cn2ccc(-c3ccc(Cl)cc3)cc2n1` [Example E66, N-{[7-(4-Chlorophenyl)imidazo[1,2-a]pyridin-2-yl]carbonyl}-O-[4-(trifluoromethyl)benzyl]tyrosine] reads 263 °C; that for `O=C(N[C@@H](Cc1ccc(OCc2ccccc2)cc1)C(=O)O)c1cn2ccc(-c3ccc(Cl)cc3)cc2n1` [Example E56, O-Benzyl-N-{[7-(4-chlorophenyl)imidazo[1,2-a]pyridin-2-yl]carbonyl}-L-tyrosine], 248 to 249 °C.
The result for `COc1ccc(/C=C/c2ccc3nc(C(=O)N[C@@H](Cc4ccc(OCc5ccccc5)cc4)C(=O)O)cn3c2)cc1` [Example E43, O-Benzyl-N-({6-[(E)-2-(4-methoxyphenyl)ethenyl]imidazo[1,2-a]pyridin-2-yl}carbonyl)tyrosine] reads 262 to 263 °C; that for `CC(C)(C)OC(=O)c1ccccc1COc1ccc(CC(=O)NC2(C(=O)O)Cc3ccc(-c4ccc(Cl)cc4)cc3C2)cc1` (centres unmarked) [Example B189, 2-{[(4-{[2-(tert-Butoxycarbonyl)benzyl]oxy}phenyl)acetyl]amino}-5-(4-chlorophenyl)indan-2-carboxylic acid], 170 to 171 °C.
Take `O=C(Cc1ccc(OCc2cccc(F)c2)cc1)NC1(C(=O)O)Cc2ccc(-c3ccc(Cl)cc3)cc2C1` (centres unmarked) [Example B142]: the melting point was found to be 209 °C.
As for `CC(C)(C)OC(=O)NCCC(=O)NC1(C(=O)O)Cc2ccc(-c3ccc(Cl)cc3)cc2C1` (centres unmarked) [Example B118, 2-{[3-(tert-Butoxycarbonylamino)propionyl]amino}-5-(4-chlorophenyl) indan-2-carboxylic acid], the figure is 212 to 214 °C; as for `O=C(Cc1ccc(OCc2ccc(F)cc2)cc1)NC1(c2nn[nH]n2)Cc2ccc(-c3ccc(Cl)cc3)cc2C1` (centres unmarked) [Example B191, N-[5-(4-Chlorophenyl)-2-(2H-tetrazol-5-yl)-2,3-dihydro-1H-inden-2-yl]-2-{4-[(4-fluorobenzyl)oxy]phenyl}acetamide], 108 to 110 °C; as for `O=C(Cc1ccc(OCc2ccc(F)cc2)cc1)NC1(C(=O)O)Cc2ccc(-c3ccc(Cl)s3)cc2C1` (centres unmarked) [Example B186, 5-(5-Chloro-2-thienyl)-2-[({4-[(4-fluorobenzyl)oxy]phenyl}acetyl)amino]indan-2-carboxylic acid], 214 to 216 °C.
As for `COc1cccc(COc2ccc(C[C@H](NC(=O)c3cn4ccc(-c5ccc(Cl)cc5)cc4n3)C(=O)O)cc2)c1` [Example E61, N-{[7-(4-Chlorophenyl)imidazo[1,2-a]pyridin-2-yl]carbonyl)-O-(3-methoxybenzyl)tyrosine], the figure is 239 to 240 °C.
With `COc1ccc(CC(=O)NC2(C(=O)O)Cc3ccc(-c4ccc(Cl)cc4)cc3C2)cc1` (centres unmarked) [Example B173, 5-(4-Chlorophenyl)-2-{[(4-methoxyphenyl)acetyl]amino)indan-2-carboxylic acid], the melting point lay in the range of 231 to 233 °C.
The result for `Cc1c(C(=O)N[C@H](Cc2ccc(OCc3ccccc3)cc2)C(=O)O)oc2cc(-c3ccc(Cl)cc3)ccc12` [Example C116, O-Benzyl-N-{[6-(4-chlorophenyl)-3-methyl-1-benzofuran-2-yl]carbonyl}-D-tyrosine] reads 113 to 114 °C; that for `O=C(CC1CCN(C(=O)Cc2ccc(F)cc2)CC1)NC1(C(=O)O)Cc2ccc(-c3ccc(Cl)cc3)cc2C1` (centres unmarked) [Example B167, 5-(4-Chlorophenyl)-2-[({1-[(4-fluorophenyl)acetyl]piperidin-4-yl}acetyl)amino]indan-2-carboxylic acid], 196 °C; that for `O=C(NC(Cc1ccc(OCc2ccc(C(F)(F)F)cc2)cc1)C(=O)O)c1cc2ccc(-c3ccc(Cl)cc3)cc2o1` (centres unmarked) [Example C162], 203 °C.
As for `O=C(Cc1ccc(-c2ccccc2)cc1)NC1(C(=O)O)Cc2ccc(-c3ccc(Cl)cc3)cc2C1` (centres unmarked) [Example B177, 2-[(Biphenyl-4-ylacetyl)amino]-5-(4-chlorophenyl)indan-2-carboxylic acid], the figure is 240 to 243 °C; as for `O=C(Cc1ccc(OCc2cccc(C(=O)O)c2)cc1)NC1(C(=O)O)Cc2ccc(-c3ccc(Cl)cc3)cc2C1` (centres unmarked) [Example B188, 2-[({4-[(3-Carboxybenzyl)oxy]phenyl}acetyl)amino]-5-(4-chlorophenyl)indan-2-carboxylic acid], 220 to 222 °C; as for `Cc1c(C(=O)NC2(C(=O)O)Cc3ccc(Br)cc3C2)oc2cc(-c3ccc(Cl)cc3)ccc12` (centres unmarked) [Example C114, 5-Bromo-2-({[6-(4-chlorophenyl)-3-methyl-1-benzofuran-2-yl]carbonyl}amino)indan-2-carboxylic acid], 227 °C.
Regarding `CC(C)(C)OC(=O)c1cccc(COc2ccc(CC(=O)NC3(C(=O)O)Cc4ccc(-c5ccc(Cl)cc5)cc4C3)cc2)c1` (centres unmarked) [Example B187, 2-{[(4-{[3-(tert-Butoxycarbonyl)benzyl]oxy}phenyl)acetyl]amino}-5-(4-chlorophenyl)indan-2-carboxylic acid], the melting point fell in the range of 177 to 179 °C.
As for `O=C(N[C@@H](Cc1ccc(OCc2ccccc2)cc1)C(=O)O)c1cn2ccc(C#Cc3ccccc3)cc2n1` [Example E58, O-Benzyl-N-{[7-(phenylethynyl)imidazo[1,2-a]pyridin-2-yl]carbonyl}tyrosine], the figure is 243 °C (dec.).
The result for `O=C(N[C@@H](Cc1ccc(OCc2ccoc2)cc1)C(=O)O)c1cc2ccc(-c3ccc(Cl)cc3)cc2s1` [Example C124, N-{[6-(4-Chlorophenyl)-1-benzothiophene-2-yl]carbonyl}-O-(3-furylmethyl) tyrosine] reads 200 to 201 °C; that for `O=C(CCc1ccc(OCc2ccccc2)cc1)Nc1c(C(=O)O)oc2cc(-c3ccc(Cl)cc3)ccc12` [Example A25, 3-({3-[4-(Benzyloxy)phenyl]propanoyl}amino)-6-(4-chlorophenyl)-1-benzofuran-2-carboxylic acid], 209 to 210 °C.
With `O=C(N[C@@H](Cc1ccc(OCc2ccccc2)cc1)C(=O)O)c1cn2ccc(-c3ccc(Cl)cc3)cc2n1` [Example E8, O-Benzyl-N-{[7-(4-chlorophenyl)imidazo[1,2-a]pyridin-2-yl]carbonyl}tyrosine], the melting point stood at 255 °C.
The result for `Cc1cc2nc(C(=O)NC(Cc3ccc(OCc4ccccc4)cc3)C(=O)O)cn2c(C)c1-c1ccc(Cl)cc1` (centres unmarked) [Example E36] reads 250 to 251 °C; that for `COc1ccc(-c2ccc3c(c2)CC(NC(=O)Cc2ccc(F)cc2)(C(=O)O)C3)cc1` (centres unmarked) [Example B131, 2-{[(4-Fluorophenyl)acetyl]amino}-5-(4-methoxyphenyl)indan-2-carboxylic acid], 227 °C.
Turning to `O=C(Cc1ccc(Oc2nc3ccccc3s2)cc1)NC1(C(=O)O)Cc2ccc(-c3ccc(Cl)cc3)cc2C1` (centres unmarked) [Example B158, 2-({[4-(1,3-Benzothiazol-2-yloxy)phenyl]acetyl}amino)-5-(4-chlorophenyl)indan-2-carboxylic acid], the melting point was in the range of 241 to 243 °C.
As for `O=C(Cc1cccnc1)NC1(C(=O)O)Cc2ccc(-c3ccc(Cl)cc3)cc2C1` (centres unmarked) (as salt: hydrochloride) [Example B175, 5-(4-Chlorophenyl)-2-[(pyridin-3-ylacetyl)amino]indan-2-carboxylic acid hydrochloride], the figure is 288 °C.
As for `O=C(CCCSc1nc2ccccc2s1)NC1(C(=O)O)Cc2ccc(-c3ccc(Cl)cc3)cc2C1` (centres unmarked) [Example B168, 2-{[4-(1,3-Benzothiazol-2-ylthio)-butanoyl]amino}-5-(4-chlorophenyl)indan-2-carboxylic acid], the figure is 210 to 212 °C; as for `O=C(N[C@@H](Cc1ccc(OCc2ccccc2)cc1)C(=O)O)c1cn2cc(-c3cccnc3)ccc2n1` [Example E20, O-Benzyl-N-[(6-(pyridin-3-yl)imidazo[1,2-a]pyridine-2-yl)carbonyl]tyrosine], 244 °C.
